Legend:
[1] = tested on: Botrytis gray mold of strawberry; experiment: Example 1: field application, Botrytis gray mold of strawberry, cool storage shelf-life evaluation; format: in vivo; details: for % Control: 7 day storage, relative to untreated check
Description: (§1) All examples are conducted under field conditions using accepted grower practices. The mixtures of I and II are applied to field grown plants, not as a post harvest berry treatment.
(§2) The use of corrected means is standard practice in field evaluations of pesticides. Corrected means are calculated as follows: [formula]
(§3) In the following examples, Fungicide A=a mixture of cyprodinil (I) and fludioxonil (II) (mixing ratio 1.5:1) applied as a 62.5% by weight water dispersible granule (WG) formulation.
Performance of Fungicide a Against Botrytis Gray Mold of Strawberry. Fungicide A is applied in the field; berries are then harvested and placed into cool storage for shelf-life evaluations (no additional sprays were made after harvest).

[2] = tested on: Botrytis gray mold of red raspberry; experiment: Example 6: field application, Botrytis gray mold of red raspberry, storage evaluation; format: in vivo
Description: as §1, §2, §3
Fungicide A is applied to field grown red raspberry and shelf-life evaluations made.
Healthy berries are harvested from each treatment and placed into storage and evaluated for Botrytis control (see table below).

O=C1C2CC=CCC2C(=O)N1SC(Cl)(Cl)Cl (stereo not drawn) [Captan, captan]
% Control ([1]; inoculated): 28%
% Control ([1]; non-inoculated): 70%
% Pest Incidence Fruit Rating 7 Day Storage Rating Inoculated ([1]; strawberry variety 'Chandler', inoculated): 51%
% Pest Incidence Fruit Rating 7 Day Storage Rating Non-inoculated ([1]; strawberry variety 'Chandler', non-inoculated): 6%
% Botrytis Infect Berries (6 Day Storage Rating) [2]: 88.2%
% Botrytis Disease Control (6 Day Storage Rating) ([2]; relative to untreated check): 7%

— patent US20060160893A1, “Method for enhancing the quality of berry fruit” (priority 2001, published 2006)
